In patent publication US10550111B2, “Pyrimidine urea compound containing isoxazolines and use thereof” (SHENYANG SINOCHEM AGROCHEMICALS R&D CO., LTD, priority 2014, dated 2020):

Experiments:
Assay type in all cases: in vivo
Zinnia elegans Jacq. = test: Bioassay of herbicidal activity in greenhouse (further screening)
How it was run: (§1)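 Visual growth inhibition rating (0 no effect to 100 all weeds dead or not emerged) after track-sprayer application (500 L/hm²) of emulsifiable concentrate. Treatments either pre-emergence, 24 h after sowing, or post-emergence at 2–3-leaf grass and 2–4-leaf broad-leaf stage, greenhouse-grown.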

[1] = test system: Setaria glauca (L.) Beauv.; test: as above
How it was run: as §1

[2] = test system: Abutilon theophrasti Medic.; test: as above
How it was run: as §1

[3] = test system: Echinochloa crus-galli (L.) Beauv.; test: as above
How it was run: as §1

[4] = test system: broad-leaf weeds and grass weeds; test: General screening of herbicidal activity in greenhouse; details: 1000 g a.i./hm^2
How it was run: as §1

## COCCOC(=O)C1(C)CC(c2cc(-n3c(=O)cc(C(F)(F)F)n(C)c3=O)c(F)cc2Cl)=NO1 (centres unmarked) [Compound 16]
Zinnia elegans Jacq.; dose 7.5 g a.i./hm^2
  Growth inhibition rate, Post-emergence treatment, Zinnia elegans Jacq.: 98%
Zinnia elegans Jacq.; dose 15 g a.i./hm^2
  Growth inhibition rate, Post-emergence treatment, Zinnia elegans Jacq.: 100%
Zinnia elegans Jacq.; dose 30.0 g a.i./hm^2
  Growth inhibition rate, Post-emergence treatment, Zinnia elegans Jacq.: 100%
Zinnia elegans Jacq.; dose 60.0 g a.i./hm^2
  Growth inhibition rate, Post-emergence treatment, Zinnia elegans Jacq.: 100%
Zinnia elegans Jacq.; dose 120.0 g a.i./hm^2
  Growth inhibition rate, Post-emergence treatment, Zinnia elegans Jacq.: 100%
[1]; dose 7.5 g a.i./hm^2
  Growth inhibition rate, Post-emergence treatment, Setaria glauca (L.) Beauv.: 75%
[1]; dose 15 g a.i./hm^2
  Growth inhibition rate, Post-emergence treatment, Setaria glauca (L.) Beauv.: 98%
[1]; dose 30.0 g a.i./hm^2
  Growth inhibition rate, Post-emergence treatment, Setaria glauca (L.) Beauv.: 100%
[1]; dose 60.0 g a.i./hm^2
  Growth inhibition rate, Post-emergence treatment, Setaria glauca (L.) Beauv.: 100%
[1]; dose 120.0 g a.i./hm^2
  Growth inhibition rate, Post-emergence treatment, Setaria glauca (L.) Beauv.: 100%
[2]; dose 7.5 g a.i./hm^2
  Growth inhibition rate, Post-emergence treatment, Abutilon theophrasti Medic.: 75%
[2]; dose 15 g a.i./hm^2
  Growth inhibition rate, Post-emergence treatment, Abutilon theophrasti Medic.: 98%
[2]; dose 30.0 g a.i./hm^2
  Growth inhibition rate, Post-emergence treatment, Abutilon theophrasti Medic.: 100%
[2]; dose 60.0 g a.i./hm^2
  Growth inhibition rate, Post-emergence treatment, Abutilon theophrasti Medic.: 100%
[2]; dose 120.0 g a.i./hm^2
  Growth inhibition rate, Post-emergence treatment, Abutilon theophrasti Medic.: 100%
[3]; dose 7.5 g a.i./hm^2
  Growth inhibition rate, Post-emergence treatment, Echinochloa crus-galli (L.) Beauv.: 50%
[3]; dose 15 g a.i./hm^2
  Growth inhibition rate, Post-emergence treatment, Echinochloa crus-galli (L.) Beauv.: 80%
[3]; dose 30.0 g a.i./hm^2
  Growth inhibition rate, Post-emergence treatment, Echinochloa crus-galli (L.) Beauv.: 100%
[3]; dose 60.0 g a.i./hm^2
  Growth inhibition rate, Post-emergence treatment, Echinochloa crus-galli (L.) Beauv.: 100%
[3]; dose 120.0 g a.i./hm^2
  Growth inhibition rate, Post-emergence treatment, Echinochloa crus-galli (L.) Beauv.: 100%
[4]
  pre-emergence and post-emergence herbicidal activity against broad-leaf weeds and grass weeds: good

## COC(=O)C1(C)CC(c2cc(-n3c(=O)cc(C(F)(F)F)n(C)c3=O)c(F)cc2Cl)=NO1 (centres unmarked) [Compound 5]
Zinnia elegans Jacq.; dose 7.5 g a.i./hm^2
  Growth inhibition rate, Post-emergence treatment, Zinnia elegans Jacq.: 40%
Zinnia elegans Jacq.; dose 15 g a.i./hm^2
  Growth inhibition rate, Post-emergence treatment, Zinnia elegans Jacq.: 45%
Zinnia elegans Jacq.; dose 30.0 g a.i./hm^2
  Growth inhibition rate, Post-emergence treatment, Zinnia elegans Jacq.: 98%
Zinnia elegans Jacq.; dose 60.0 g a.i./hm^2
  Growth inhibition rate, Post-emergence treatment, Zinnia elegans Jacq.: 100%
Zinnia elegans Jacq.; dose 120.0 g a.i./hm^2
  Growth inhibition rate, Post-emergence treatment, Zinnia elegans Jacq.: 100%
[1]; dose 7.5 g a.i./hm^2
  Growth inhibition rate, Post-emergence treatment, Setaria glauca (L.) Beauv.: 60%
[1]; dose 15 g a.i./hm^2
  Growth inhibition rate, Post-emergence treatment, Setaria glauca (L.) Beauv.: 65%
[1]; dose 30.0 g a.i./hm^2
  Growth inhibition rate, Post-emergence treatment, Setaria glauca (L.) Beauv.: 100%
[1]; dose 60.0 g a.i./hm^2
  Growth inhibition rate, Post-emergence treatment, Setaria glauca (L.) Beauv.: 100%
[1]; dose 120.0 g a.i./hm^2
  Growth inhibition rate, Post-emergence treatment, Setaria glauca (L.) Beauv.: 100%
[2]; dose 7.5 g a.i./hm^2
  Growth inhibition rate, Post-emergence treatment, Abutilon theophrasti Medic.: 100%
[2]; dose 15 g a.i./hm^2
  Growth inhibition rate, Post-emergence treatment, Abutilon theophrasti Medic.: 100%
[2]; dose 30.0 g a.i./hm^2
  Growth inhibition rate, Post-emergence treatment, Abutilon theophrasti Medic.: 100%
[2]; dose 60.0 g a.i./hm^2
  Growth inhibition rate, Post-emergence treatment, Abutilon theophrasti Medic.: 100%
[2]; dose 120.0 g a.i./hm^2
  Growth inhibition rate, Post-emergence treatment, Abutilon theophrasti Medic.: 100%
[3]; dose 7.5 g a.i./hm^2
  Growth inhibition rate, Post-emergence treatment, Echinochloa crus-galli (L.) Beauv.: 45%
[3]; dose 15 g a.i./hm^2
  Growth inhibition rate, Post-emergence treatment, Echinochloa crus-galli (L.) Beauv.: 95%
[3]; dose 30.0 g a.i./hm^2
  Growth inhibition rate, Post-emergence treatment, Echinochloa crus-galli (L.) Beauv.: 100%
[3]; dose 60.0 g a.i./hm^2
  Growth inhibition rate, Post-emergence treatment, Echinochloa crus-galli (L.) Beauv.: 100%
[3]; dose 120.0 g a.i./hm^2
  Growth inhibition rate, Post-emergence treatment, Echinochloa crus-galli (L.) Beauv.: 100%
[4]
  pre-emergence and post-emergence herbicidal activity against broad-leaf weeds and grass weeds: good

## Cn1c(C(F)(F)F)cc(=O)n(-c2cc(C3=NOC(C)(COC(=O)CCc4ccccc4)C3)c(Cl)cc2F)c1=O (centres unmarked) [Compound 55]
Zinnia elegans Jacq.; dose 37.5 g a.i./hm^2
  Growth inhibition rate, Post-emergence treatment, Zinnia elegans Jacq.: 100%
  Growth inhibition rate, Pre-emergence treatment, Zinnia elegans Jacq.: 0%
Zinnia elegans Jacq.; dose 150 g a.i./hm^2
  Growth inhibition rate, Post-emergence treatment, Zinnia elegans Jacq.: 100%
  Growth inhibition rate, Pre-emergence treatment, Zinnia elegans Jacq.: 5%
Zinnia elegans Jacq.; dose 600 g a.i./hm^2
  Growth inhibition rate, Post-emergence treatment, Zinnia elegans Jacq.: 100%
  Growth inhibition rate, Pre-emergence treatment, Zinnia elegans Jacq.: 80%
[1]; dose 37.5 g a.i./hm^2
  Growth inhibition rate, Post-emergence treatment, Setaria glauca (L.) Beauv.: 30%
  Growth inhibition rate, Pre-emergence treatment, Setaria glauca (L.) Beauv.: 0%
[1]; dose 150 g a.i./hm^2
  Growth inhibition rate, Post-emergence treatment, Setaria glauca (L.) Beauv.: 75%
  Growth inhibition rate, Pre-emergence treatment, Setaria glauca (L.) Beauv.: 5%
[1]; dose 600 g a.i./hm^2
  Growth inhibition rate, Post-emergence treatment, Setaria glauca (L.) Beauv.: 90%
  Growth inhibition rate, Pre-emergence treatment, Setaria glauca (L.) Beauv.: 80%
[2]; dose 37.5 g a.i./hm^2
  Growth inhibition rate, Post-emergence treatment, Abutilon theophrasti Medic.: 100%
  Growth inhibition rate, Pre-emergence treatment, Abutilon theophrasti Medic.: 5%
[2]; dose 150 g a.i./hm^2
  Growth inhibition rate, Post-emergence treatment, Abutilon theophrasti Medic.: 100%
  Growth inhibition rate, Pre-emergence treatment, Abutilon theophrasti Medic.: 20%
[2]; dose 600 g a.i./hm^2
  Growth inhibition rate, Post-emergence treatment, Abutilon theophrasti Medic.: 100%
  Growth inhibition rate, Pre-emergence treatment, Abutilon theophrasti Medic.: 45%
[3]; dose 37.5 g a.i./hm^2
  Growth inhibition rate, Post-emergence treatment, Echinochloa crus-galli (L.) Beauv.: 20%
  Growth inhibition rate, Pre-emergence treatment, Echinochloa crus-galli (L.) Beauv.: 0%
[3]; dose 150 g a.i./hm^2
  Growth inhibition rate, Post-emergence treatment, Echinochloa crus-galli (L.) Beauv.: 35%
  Growth inhibition rate, Pre-emergence treatment, Echinochloa crus-galli (L.) Beauv.: 20%
[3]; dose 600 g a.i./hm^2
  Growth inhibition rate, Post-emergence treatment, Echinochloa crus-galli (L.) Beauv.: 45%
  Growth inhibition rate, Pre-emergence treatment, Echinochloa crus-galli (L.) Beauv.: 40%
[4]
  pre-emergence and post-emergence herbicidal activity against broad-leaf weeds and grass weeds: good

## CSCCC(=O)OCC1(C)CC(c2cc(-n3c(=O)cc(C(F)(F)F)n(C)c3=O)c(F)cc2Cl)=NO1 (centres unmarked) [Compound 54]
Zinnia elegans Jacq.; dose 37.5 g a.i./hm^2
  Growth inhibition rate, Post-emergence treatment, Zinnia elegans Jacq.: 90%
  Growth inhibition rate, Pre-emergence treatment, Zinnia elegans Jacq.: 0%
Zinnia elegans Jacq.; dose 150 g a.i./hm^2
  Growth inhibition rate, Post-emergence treatment, Zinnia elegans Jacq.: 100%
  Growth inhibition rate, Pre-emergence treatment, Zinnia elegans Jacq.: 20%
Zinnia elegans Jacq.; dose 600 g a.i./hm^2
  Growth inhibition rate, Post-emergence treatment, Zinnia elegans Jacq.: 100%
  Growth inhibition rate, Pre-emergence treatment, Zinnia elegans Jacq.: 60%
[1]; dose 37.5 g a.i./hm^2
  Growth inhibition rate, Post-emergence treatment, Setaria glauca (L.) Beauv.: 35%
  Growth inhibition rate, Pre-emergence treatment, Setaria glauca (L.) Beauv.: 0%
[1]; dose 150 g a.i./hm^2
  Growth inhibition rate, Post-emergence treatment, Setaria glauca (L.) Beauv.: 70%
  Growth inhibition rate, Pre-emergence treatment, Setaria glauca (L.) Beauv.: 20%
[1]; dose 600 g a.i./hm^2
  Growth inhibition rate, Post-emergence treatment, Setaria glauca (L.) Beauv.: 98%
  Growth inhibition rate, Pre-emergence treatment, Setaria glauca (L.) Beauv.: 60%
[2]; dose 37.5 g a.i./hm^2
  Growth inhibition rate, Post-emergence treatment, Abutilon theophrasti Medic.: 100%
  Growth inhibition rate, Pre-emergence treatment, Abutilon theophrasti Medic.: 0%
[2]; dose 150 g a.i./hm^2
  Growth inhibition rate, Post-emergence treatment, Abutilon theophrasti Medic.: 100%
  Growth inhibition rate, Pre-emergence treatment, Abutilon theophrasti Medic.: 35%
[2]; dose 600 g a.i./hm^2
  Growth inhibition rate, Post-emergence treatment, Abutilon theophrasti Medic.: 100%
  Growth inhibition rate, Pre-emergence treatment, Abutilon theophrasti Medic.: 90%
[3]; dose 37.5 g a.i./hm^2
  Growth inhibition rate, Post-emergence treatment, Echinochloa crus-galli (L.) Beauv.: 10%
  Growth inhibition rate, Pre-emergence treatment, Echinochloa crus-galli (L.) Beauv.: 0%
[3]; dose 150 g a.i./hm^2
  Growth inhibition rate, Post-emergence treatment, Echinochloa crus-galli (L.) Beauv.: 20%
  Growth inhibition rate, Pre-emergence treatment, Echinochloa crus-galli (L.) Beauv.: 15%
[3]; dose 600 g a.i./hm^2
  Growth inhibition rate, Post-emergence treatment, Echinochloa crus-galli (L.) Beauv.: 75%
  Growth inhibition rate, Pre-emergence treatment, Echinochloa crus-galli (L.) Beauv.: 80%
[4]
  pre-emergence and post-emergence herbicidal activity against broad-leaf weeds and grass weeds: good
